Experimental data taken from patent US20060025449A1, “Use of N-substituted imino sugars for appetite suppression” (priority 2004, published 2006).

Key:
[1] = test system: C57B1/6 mice; assay: Effect of imino sugars admixed with diet on growth of normal control mice; assay type: in vivo, mouse
Experimental: Control C57B1/6 and C57BL/6O1aHsd-Lep ob mice were obtained from Harlan, UK at five weeks of age. The mice were housed under standard non-sterile conditions and fed a diet of mouse chow pelleted or expanded ground RM1 diet (SDS Ltd, Witham, Essex) with water available ad libitum. For dietary treatment of the mice with NB-DNJ or NB-DGJ, the diet and compound were admixed thoroughly as dry solids, stored at room temperature and used within 7 days. Unless indicated otherwise, mice were treated with a dose of 2400 mg/kg body weight per day, assuming an intake of around 5 g diet/day. Mice were maintained on diet with or without compound for up to six months of age and were weighed at regular intervals during the course of the experiment (see figure legends for group sizes and further experimental details). To study the effect of compound on obese mice, three groups (n=5) of ob/ob mice were monitored from five weeks of age. One group acted as control and were fed ground RM1 diet. At 6 weeks of age, the second group was started on NB-DNJ in the diet, whilst the third group started drug treatment at 12 weeks of age. All mice were then monitored for up to six months of age. […] In the first week of treatment, mice with NB-DNJ in their diet lost about 10% of their total body mass. Over the course of the following weeks, their weight stabilises. By 5 weeks of treatment they weighed 25% less than the controls. They then started to gain weight. However, after 10 weeks they remained 20% less in mass when compared with the age and sex-matched control group.

[2] = test system: lean control and obese mice; assay: Dietary intake in lean and obese mice (compound in diet or intraperitoneal injection); assay type: in vivo, mouse
Experimental: Dietary intake of mice on powdered diets was measured on a daily basis, by pre-weighing diet put into the feeding hoppers then weighing remaining diet daily. Diet which the mice had spilt on the floor of the cage, was carefully recovered by sieving and incorporated into the measurements. In order to facilitate measurement of dietary intake, to exclude possible effects of the bitter taste of imino sugar in the diet and also inhibitory effects on disaccharidases in the gastrointestinal tract, groups of control and obese mice five weeks old were given daily intraperitoneal injections of NB-DNJ at a dose equivalent to 2400 mg/kg/day. A further group of obese mice was given daily intraperitoneal injections for two weeks from 10 weeks old. Control mice for each group were injected with an equal volume of isotonic saline vehicle. After assessment of dietary intake over five weeks in controls and three weeks in the obese mice, a restricted diet of 3.2 g/day for controls and 4.0 g/day for the obese mice was provided to compare with the effect of intraperitoneal injection. This equated to a 30% reduction in dietary provision for both groups of mice. […] Platt et al., J Biol Chem 272, 19365-72. This hypothesis was tested by measuring dietary intake in both lean and obese mice fed on both powdered chow with or without imino sugar and with pelleted diet. To exclude any effects of the bitter taste of imino sugars and also as a means to bypass any disaccharidase inhibition in the gut, lean control and obese mice were given daily intraperitoneal injections of NB-DNJ for five and three weeks respectively. Also, a group of obese mice had NB-DNJ mini-pumps implanted and, after four weeks, when the pumps were empty, were then given intraperitoneal injections daily. This delivery route has the advantage that it allows easy assessment of dietary intake, as the mice can eat pelleted diet.

[3] = test system: male C57B1/6 mice; assay: Epididymal fat pad weight, dose-response; assay type: in vivo, mouse
Experimental: A dose-response relationship for the effect of increasing concentrations of NB-DNJ on adipose tissue in male C57B1/6 mice was determined by treating with doses ranging from 15 to 2400 mg/kg/day for 5 weeks. Mice were sacrificed and their epididymal fat pads excised and weighed. The results are expressed as a ratio of epididymal pad fat mass to total body weight.

[4] = test system: lean control mouse; assay: Single intracerebroventricular (ICV) injection, food intake and weight change after 24 hours; assay type: in vivo
Experimental: To investigate a central anorexigenic mechanism for weight loss in mice treated with NB-DNJ, single intracerebro-ventricular (ICV) injections were performed. The mice were assessed for food intake and weight change. Mice were anesthetized with isofluorane (4%) delivered by a vaporiser. Upon achievement of a surgical plane of anaesthesia, the animal was transferred to and secured in a Kopf small animal ultra precise stereotaxic instrument (David Kopf Instruments, Tujunga, Calif., USA) fitted with rat ear bars, mouse adaptor and mouse anaesthesia mask. A small amount of lignocaine local anaesthetic gel was applied to the ear bars to reduce any post-operative discomfort. For the remainder of the procedure, anaesthesia was maintained with 2.5% isofluorane. Lacrilube (Allergan Ltd, High Wycombe, UK) was applied to the mouse's eyes and a subcutaneous injection of the non-steroidal anti-inflammatory drug, Rimadyl (Pfizer, Sandwich, Kent, UK) was given for post-operative analgesia. For ICV injections, a small scalpel incision was made along the midline of the scalp from above the eyes to the occiput. A small hole was drilled in the skull, 1 mm lateral and 0.34 mm posterior to Bregma. 1 μl solution was slowly infused into the lateral ventricle at a depth of 2.25 mm, via a glass needle pipette pulled to a thickness of less than 100 microns at the tip. Mice were injected with 2 nmol compound (NB-DNJ, NB-DGJ or 2-deoxy glucose) in isotonic saline vehicle which was injected into controls. The incision was then closed using VetBond acrylic suture fluid (3M Animal Care Products, St Paul, Minn., USA). The whole procedure from induction of anaesthesia to full recovery lasted less than seven minutes. Mice were allowed free access to a pre-weighed quantity of RM1 pellet diet with water provided ad libitum. 24 hours following ICV injection the mice and remaining diet were weighed. To confirm a central anorectic effect of NB-DNJ, 2 nmol NB-DNJ, NB-DGJ and 2 deoxyglucose were injected directly into the lateral cerebral ventricle of lean control mouse brain (approximately 100 μM final cerebro-ventricular concentration). Mice injected with both saline vehicle and NB-DGJ ate a normal quantity of pellet diet in the following 24 hours (FIG. 9), approximately 5% less in this experiment than that seen in control mice in FIG. 7 (not statistically significant). In contrast, NB-DNJ-injected mice ate 20% less (p<0.02 for both saline and NB-DGJ) and 2-deoxy-glucose injections caused a 10% increase in feeding. 2-deoxy-glucose is a mild appetite stimulant in the short-term. Tsutsui et al., Physiol Behav 31, 493-502. In contrast, NB-DGJ had no effect, as expected.

CCCCN1C[C@H](O)[C@@H](O)[C@H](O)[C@H]1CO [NB-DNJ, N-butyldeoxynojirimycin]
loss of total body mass ([1]; 2400 mg/kg/day in diet from 6 weeks of age, first week of treatment): about 10% | less in mass compared with age and sex-matched control group ([1]; 2400 mg/kg/day in diet, after 10 weeks): 20% | weighed less than the controls ([1]; 2400 mg/kg/day in diet, by 5 weeks of treatment): 25% | reduction in food intake ([2]; all groups of mice, pelleted or powdered diet, 2400 mg/kg/day equivalent): around 30% | eat less than age and sex-matched controls ([2]; intraperitoneally injected mice, 2400 mg/kg/day equivalent): 30% | ate less than untreated controls ([2]; lean and obese groups): up to one third less | lowest dose at which a reduction in fat pad weight is apparent ([3]; 5 weeks treatment, doses 15 to 2400 mg/kg/day): 15 mg/kg/day | epididymal fat pad mass to total body weight ([3]; five weeks treatment, 15 to 2400 mg/kg/day): clear dose-related response | ate less than saline- and NB-DGJ-injected mice ([4]; 2 nmol ICV, 24 hours): 20% | weight change ([4]; 2 nmol ICV, 24 hours): significant weight loss | initial hyperphagic response ([4]; first 24 hrs post icv injection): did not cause an initialhyperphagic response
